pIC50: −log10 of the molar value.
These compounds were tested against T1, androgen receptor (AR) (Homo sapiens, UniProt P10275, T878A) (assay: Androgen-induced PSA-luciferase assay, Luciferase Assay A (LNCaP transiently transfected with PSA (6.1 kb)-luciferase reporter)). Conditions: LNCaP cells, 1 h pretreatment, R1881 (1 nM) 24 h, read-out: PSA-Luc IC50 Range.
T1 construct: endogenous in cells; host or cells: LNCaP
T1 sequence (P10275 1-920 T878A): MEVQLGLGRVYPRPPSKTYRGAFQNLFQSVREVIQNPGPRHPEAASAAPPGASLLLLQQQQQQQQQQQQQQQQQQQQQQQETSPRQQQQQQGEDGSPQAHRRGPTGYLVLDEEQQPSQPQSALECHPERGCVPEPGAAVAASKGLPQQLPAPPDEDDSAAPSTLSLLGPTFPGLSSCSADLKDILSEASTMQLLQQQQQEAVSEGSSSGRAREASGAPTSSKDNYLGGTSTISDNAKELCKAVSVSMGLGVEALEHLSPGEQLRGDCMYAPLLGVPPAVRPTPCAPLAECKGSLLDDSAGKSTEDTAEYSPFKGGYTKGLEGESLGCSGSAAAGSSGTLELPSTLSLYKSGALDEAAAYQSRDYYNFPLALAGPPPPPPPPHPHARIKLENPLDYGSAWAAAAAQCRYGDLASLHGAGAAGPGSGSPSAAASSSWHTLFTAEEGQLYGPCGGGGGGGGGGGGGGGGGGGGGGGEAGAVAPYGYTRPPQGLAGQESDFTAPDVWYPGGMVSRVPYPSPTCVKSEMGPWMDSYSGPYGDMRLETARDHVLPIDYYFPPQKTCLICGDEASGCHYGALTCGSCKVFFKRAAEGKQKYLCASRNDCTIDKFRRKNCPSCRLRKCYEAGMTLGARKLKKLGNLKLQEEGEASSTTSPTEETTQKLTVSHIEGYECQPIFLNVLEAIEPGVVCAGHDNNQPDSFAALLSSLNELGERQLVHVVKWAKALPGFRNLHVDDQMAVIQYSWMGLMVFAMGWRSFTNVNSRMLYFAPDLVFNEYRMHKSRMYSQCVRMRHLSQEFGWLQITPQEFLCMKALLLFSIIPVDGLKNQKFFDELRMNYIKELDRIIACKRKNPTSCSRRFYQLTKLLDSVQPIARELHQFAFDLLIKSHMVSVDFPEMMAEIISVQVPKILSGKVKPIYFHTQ
Type: cell-based
Procedure: The PSA (6.1 kb)-luciferase reporter contains functional AREs (androgen response elements) to which AR binds in response to androgen to induce luciferase activity. LNCaP cells were transiently transfected with the PSA (6.1 kb)-luciferase reporter for 24 h, and then pretreated with vehicle (DMSO) or indicated concentration of representative compounds for one hour prior to the addition of synthetic androgen, R1881 (1 nM). After 24 h of incubation with R1881, the cells were harvested, and relative luciferase activities were determined (FIG. 1). To determine the IC50, treatments were normalized to vehicle control activity induced by R1881 (Table 2).
Luciferase Assay A: Cells were lysed using Passive Lysis Buffer (Promega) and then collected into V-bottom 96-well tissue culture plates. Lysates were centrifuged at 4° C. for 5 minutes at 3000 rpm. To measure luminescence of LNCaP cell lysates the Firefly Luciferase Assay System (Promega) was employed, according to manufacturer's protocol. Relative luminescence units (RLU) in cell lysates were detected for 10 seconds using Promega GloMax-Multi Detection Luminometer (Promega). Values were normalized to protein content. GraphPad Prism graphing software was used to calculate IC50 values. Luciferase Assay A was run for all compounds in Table 2 unless otherwise noted below.
Statistical analyses were performed using GraphPad Prism (Version 6.01 for Windows; La Jolla, CA, USA). Comparisons between treatment and control groups were compared using Two-Way ANOVA with post-hoc Dunnett's and Tukey's tests. Differences were considered statistically significant at P values less than 0.05.

Structure (SMILES)	pIC50
CC(C)(c1ccc(-c2ccc(N3CCCC(NS(C)(=O)=O)C3)nc2)cc1)c1cc(Cl)c(OCCCl)c(C#N)c1 (centres unmarked) [Compound A59]	5.70 to 6.30
CC(C)(c1ccc(Oc2ccnc(CNS(C)(=O)=O)n2)cc1)c1cc(Cl)c(OCCCl)c(C#N)c1 [Compound A85]	5.70 to 6.30
CC(C)(c1ccc(OCc2ccnc(NS(=O)(=O)c3ccccn3)n2)cc1)c1cc(Cl)c(OCCCl)c(C#N)c1 [Compound A110]	5.70 to 6.30
CC(C)(c1ccc(OC2CC3(C2)CN(S(C)(=O)=O)C3)cc1)c1cc(Cl)c(OC2CC2)c(C#N)c1 [Compound A141]	5.70 to 6.30
CC(C)(c1ccc(-c2cnc(N3CC(NS(C)(=O)=O)C3)c(F)c2)cc1)c1cc(Cl)c(OCCCl)c(C#N)c1 [Compound A50]	> 6.30
CS(=O)(=O)N[C@H]1C[C@H](n2cc(-c3ccc(Oc4cc(Cl)c(OCCCl)c(C#N)c4)cc3)cn2)C1 [Compound A79]	< 5.70
CC(C)(c1ccc(OCc2ccnc(NS(C)(=O)=O)n2)cc1)c1cc(Cl)c(OCCN2CCNCC2)c(C#N)c1 [Compound A184]	< 5.70
CC(C)(c1ccc(OC[C@]2(C)C[C@@H](NS(C)(=O)=O)C2)cc1)c1cc(Cl)c(OCCCl)c(C#N)c1 [Compound A25]	< 5.70
CC(C)(c1ccc(O[C@H]2CC[C@H](NS(C)(=O)=O)CC2)cc1)c1cc(Cl)c(OCCCl)c(C#N)c1 [Compound A33]	< 5.70
CC(C)(c1ccc(OCC2CC3(C2)CN(S(C)(=O)=O)C3)cc1)c1cc(Cl)c(OCCCl)c(C#N)c1 [Compound A71]	5.70 to 6.30
CC(C)(c1ccc(OC[C@]2(C)C[C@H](NS(C)(=O)=O)C2)cc1)c1cc(Cl)c(OCCCl)c(C#N)c1 [Compound A51]	< 5.70
CC(C)(c1ccc(OCc2ccnc(NS(=O)(=O)c3ccoc3)n2)cc1)c1cc(Cl)c(OCCCl)c(C#N)c1 [Compound A103]	5.70 to 6.30
CC(C)(c1ccc(OCc2ccnc(NS(=O)(=O)c3ccsc3)n2)cc1)c1cc(Cl)c(OCCCl)c(C#N)c1 [Compound A101]	5.70 to 6.30
CC(C)(c1ccc(-c2cnc3cc(NS(C)(=O)=O)ccc3n2)cc1)c1cc(Cl)c(OCCCl)c(C#N)c1 [Compound A124]	5.70 to 6.30
CC(C)(c1ccc(-c2cnc(N3CC(CNS(C)(=O)=O)C3)nc2)cc1)c1cc(Cl)c(OCCCl)c(C#N)c1 [Compound A95]	5.70 to 6.30
CS(=O)(=O)Nc1cnc2cc(-c3ccc(Oc4cc(F)c(OCCCl)c(C#N)c4)cc3)ccc2n1 [Compound A155]	5.70 to 6.30

Structure (SMILES)	pIC50
CC(C)(c1ccc(-c2cnc(NC3CCN(S(C)(=O)=O)CC3)nc2)cc1)c1cc(Cl)c(OCCCl)c(C#N)c1 [Compound A151]	< 5.70
CC(C)(c1ccc(-c2cnc(CNS(C)(=O)=O)cn2)cc1)c1cc(Cl)c(OCCCl)c(C#N)c1 [Compound A2]	5.70 to 6.30
CS(=O)(=O)Nc1cnc2cc(C3CCN(Cc4cc(Cl)c(OCCCl)c(C#N)c4)CC3)ccc2n1 [Compound A93]	< 5.70
CS(=O)(=O)Nc1nc2ccc(-c3ccc(Oc4cc(Cl)c(OCCCl)c(C#N)c4)cc3)cc2o1 [Compound A61]	5.70 to 6.30
CC(C)(c1ccc(OCc2ccc(F)c(NS(C)(=O)=O)c2)cc1)c1cc(Cl)c(OCCCl)c(C#N)c1 [Compound A131]	5.70 to 6.30
CCCOc1c(Cl)cc(C(C)(C)c2ccc(OCc3ccnc(NS(C)(=O)=O)n3)cc2)cc1C#N [Compound A178]	> 6.30
CS(=O)(=O)Nc1cnc2cc(-c3ccc(Nc4cc(Cl)c(OCCCl)c(C#N)c4)cc3)ccc2n1 [Compound A27]	< 5.70
CC(C)(c1ccc(OCc2cnc(NS(C)(=O)=O)nc2N)cc1)c1cc(Cl)c(OCCCl)c(C#N)c1 [Compound A118, N-(4-amino-5-((4-(2-(3-chloro-4-(2-chloroethoxy)-5-cyanophenyl)propan-2-yl)phenoxy)methyl)pyrimidin-2-yl)methanesulfonamide]	> 6.30
CC(C)(c1ccc(OCc2ccnc(NS(C)(=O)=O)n2)cc1)c1cc(Cl)c(N2CCC3(CC2)CC3)c(C#N)c1 [Compound A133]	< 5.70
CC(C)(c1ccc(N2CCOC3(CCN(S(C)(=O)=O)CC3)C2)cc1)c1cc(Cl)c(OCCCl)c(C#N)c1 [Compound A32]	> 6.30
CC(C)(c1ccc(OCc2ccnc(NS(C)(=O)=O)n2)cc1)c1cc(Cl)c(OCCCOC(=O)Nc2ccccc2)c(C#N)c1 [Compound A139]	5.70 to 6.30
CS(=O)(=O)NC1CCN(Cc2ccc(Oc3cc(Cl)c(OCCCl)c(C#N)c3)cc2)CC1 [Compound A9]	< 5.70
CC(C)(c1cc(Cl)c(OCCCl)c(C#N)c1)c1ccc(OCc2ccnc(NS(C)(=O)=O)n2)c(CN2CCNCC2)c1 [Compound A113]	< 5.70
C=COc1c(Cl)cc(C(C)(C)c2ccc(COc3ccnc(NS(C)(=O)=O)n3)cc2)cc1C#N [Compound A102]	< 5.70
CS(=O)(=O)Nc1nccc2nc(-c3ccc(Oc4cc(Cl)c(OCCCl)c(C#N)c4)cc3)ccc12 [Compound A66]	< 5.70

Other lines, results leading:

pIC50	Structure (SMILES)
> 6.30	CC(C)(c1ccc(-c2ccc(N3CC(CNS(C)(=O)=O)C3)nc2)cc1)c1cc(Cl)c(OCCCl)c(C#N)c1 [Compound A55]
5.70 to 6.30	CC(C)(c1ccc(OCc2ccnc(NS(C)(=O)=O)n2)cc1)c1cc(Cl)c(CN2CC(F)(F)C2)c(Cl)c1 [Compound A166]
5.70 to 6.30	CN(c1ccc(OCc2ccnc(NS(C)(=O)=O)n2)cc1)c1cc(Cl)c(OCCCl)c(C#N)c1 [Compound A162]
5.70 to 6.30	CC(C)(c1ccc(OCc2ccnc(NS(=O)(=O)c3cccs3)n2)cc1)c1cc(Cl)c(OCCCl)c(C#N)c1 [Compound A100]
< 5.70	CC(C)(c1ccc(OCc2ccnc(NS(C)(=O)=O)n2)cc1)c1cc(Cl)c(CCN2CC(F)(F)C2)c(C#N)c1 [Compound A168]
< 5.70	CC(C)(c1ccc(CN2CC(NS(C)(=O)=O)CC(F)(F)C2)cc1)c1cc(Cl)c(OCCCl)c(C#N)c1 (centres unmarked) [Compound A46]
5.70 to 6.30	CC(C)(c1ccc(OCC23CC(NS(C)(=O)=O)(C2)C3)cc1)c1cc(Cl)c(OC2CC2)c(C#N)c1 [Compound A143]
< 5.70	CC(C)(c1ccc(OCc2ccnc(NS(C)(=O)=O)n2)cc1)c1cc(Cl)c(OCc2cnccn2)c(C#N)c1 [Compound A181]
5.70 to 6.30	CS(=O)(=O)NCc1ccc(-c2ccc(Oc3cc(Cl)c(OCCCl)c(C#N)c3)cc2)cn1 [Compound A21]
< 5.70	CC(C)(c1ccc(OCc2ccnc(NS(C)(=O)=O)n2)cc1)c1cc(Cl)c(CCN2CC(O)C2)c(C#N)c1 [Compound A169]
5.70 to 6.30	CC(C)(c1ccc(OC[C@H]2C[C@@H](CNS(C)(=O)=O)C2)cc1)c1cc(Cl)c(OCCCl)c(C#N)c1 [Compound A74]
5.70 to 6.30	CC(C)(c1ccc(OCc2ccnc(NS(C)(=O)=O)n2)cc1)c1cc(Cl)c(N2CC3CC2CO3)c(C#N)c1 (centres unmarked) [Compound A149]
> 6.30	CC(C)(c1ccc(-c2ccc(N3CCC(NS(C)(=O)=O)C3)nc2)cc1)c1cc(Cl)c(OCCCl)c(C#N)c1 (centres unmarked) [Compound A54]
> 6.30	CC(C)(c1ccc(-c2ccc(CCNS(C)(=O)=O)nc2)cc1)c1cc(Cl)c(OCCCl)c(C#N)c1 [Compound A6]
< 5.70	CC(C)(c1ccc(-c2cn([C@H]3C[C@H](NS(C)(=O)=O)C3)nn2)cc1)c1cc(Cl)c(OCCCl)c(C#N)c1 [Compound A77]
< 5.70	CC1(O)CN(Cc2c(Cl)cc(C(C)(C)c3ccc(OCc4ccnc(NS(C)(=O)=O)n4)cc3)cc2Cl)C1 [Compound A161]
< 5.70	CC(C)(c1ccc(N2CCOC(CCNS(C)(=O)=O)C2)cc1)c1cc(Cl)c(OCCCl)c(C#N)c1 (centres unmarked) [Compound A31]
5.70 to 6.30	CC(C)(c1ccc(Oc2ccnc(N3CC(NS(C)(=O)=O)C3)n2)cc1)c1cc(Cl)c(OCCCl)c(C#N)c1 [Compound A87]
5.70 to 6.30	CC(C)(c1ccc(-c2ccc(CNS(C)(=O)=O)cn2)cc1)c1cc(Cl)c(OCCCl)c(C#N)c1 [Compound A3]
